Experimental data taken from patent US11690852B2, “Reduction of the incidence or recurrence of breast cancer in postmenopausal women treated with intravaginal sex steroid precursor” (Endorecherche, Inc., priority 2020, dated 2023).
“Also recorded” adds a separate entry of the source.

Assays:
[1] = system: breast cancer; assay: Retrospective cohort analysis of claims data: 1-year incidence of breast cancer (Objective A); assay type: in vivo, women
Source text: (§1) We set out to assess the 1-year incidence rate of breast cancer among women treated with prasterone compared to matched controls of untreated VVA women (Objective A). We also assessed the 1-year recurrence rate of breast cancer among women treated with prasterone with a history of breast cancer compared to matched controls of untreated VVA women (Objective B).
(§2) In order to evaluate whether total exposure to prasterone in the follow-up window alters the results of the primary objectives A and B, we used sensitivity analyses to stratify patients based on cumulative days of supply.
(§3) This retrospective cohort analysis was based on claims data from the Integrated Dataverse (IDV) database from Symphony Health Solutions. Data included in the analysis spanned a 5-year period from February 2015 through January 2020. For both objectives, the index date was defined as the first prasterone prescription fill date for treated women and as the initial VVA diagnosis date for untreated women (FIG. 1). Data were included from women who were at least 45 years of age and had at least one year of data available before and after the index date. Women treated with vaginal estrogen or ospem ifene were excluded. History of breast cancer prior to the index date was assessed. Before matching, 47,395 patients with at least one prescription of intravaginal prasterone (6.5 mg suppository) filled and no history of breast cancer were included and 2,986 with a history of breast cancer. Before matching again, 669,623 women were included in the pool of untreated VVA patients without a history of breast cancer, and 53,896 with a history of breast cancer (FIG. 2).
(§4) To ensure a balanced risk profile across treatment groups the women treated with prasterone were matched with a 1:1 ratio to untreated women based on the following parameters (FIG. 3): • Calendar year • Age • Prior to the index date: • Cancer diagnosis • Breast cancer diagnosis • Use of chemotherapy • Family history of breast cancer • Mammography • Use of estrogen therapy • Obesity and hyperlipidemia • Assessed during the 12 months prior to the index date • Charlson Elixhauser comorbidity index
(§5) Primary objectives A and B included all women meeting the inclusion criteria and having at least one prescription of prasterone filled. We then set minimum exposure thresholds to stratify patients based on the length of exposure. Thresholds were set at least 90 or 180 days of supply. Incidence (objective A) and recurrence (objective B) analyses were conducted in these new groups.

[2] = system: breast cancer; assay: Retrospective cohort analysis of claims data: 1-year recurrence of breast cancer in women with a history of breast cancer (Objective B); assay type: in vivo
Source text: as §1, §2, §3, §4, §5

[3] = system: breast cancer; conditions: postmenopausal women; testosterone supplements; cited from earlier work
[4] = system: breast intraepithelial neoplasia; conditions: 5 mg/d for 3 years; 55% of women menopaused; cited from earlier work
[5] = all ages (≥45 years old), any days of supply
[6] = minimum exposure threshold either 90 days or 180 days of supply

SMILES: C[C@]12CC[C@H](O)CC1=CC[C@@H]1[C@@H]2CC[C@]2(C)C(=O)CC[C@@H]12 [Intravaginal prasterone, dehydroepiandrosterone]
- % of incidence of breast cancer ([1]; 45 to 54 years old): 0.34%
- incidence ratio (prasterone / untreated VVA) ([1]; 45 to 54 years old): 0.85
- % of incidence of breast cancer ([1]; 55 to 64 years old): 0.37%
- incidence ratio (prasterone / untreated VVA) ([1]; 55 to 64 years old): 0.87
- % of incidence of breast cancer ([1]; 65 years old and older): 0.58%
- incidence ratio (prasterone / untreated VVA) ([1]; 65 years old and older): 1.03
- incidence ratio (prasterone / untreated VVA) [1, 5]: 0.89
- % of incidence of breast cancer ([1]; all ages (≥45 years old), any days of supply, 1-year, 6.5 mg suppository): 0.39%
- % of incidence of breast cancer ([1]; at least 90 days of supply): 0.28%
- incidence ratio (prasterone / untreated VVA) ([1]; at least 90 days of supply): 0.55
- % of incidence of breast cancer ([1]; at least 180 days of supply): 0.25%
- incidence ratio (prasterone / untreated VVA) ([1]; at least 180 days of supply): 0.48
- incidence of breast cancer compared to the untreated VVA group (in words) ([1]; at least one prescription filled, all ages and age groups 45-54, 55-64, 65+): no statistically significant difference; also recorded: no statistical difference
- incidence of breast cancer compared to the untreated VVA groups (in words) [1, 6]: significant reduction
- % of recurrence of breast cancer ([2]; 45 to 54 years old): 41.63%
- recurrence ratio (prasterone / untreated VVA) ([2]; 45 to 54 years old): 0.84
- % of recurrence of breast cancer ([2]; 55 to 64 years old): 31.42%
- recurrence ratio (prasterone / untreated VVA) ([2]; 55 to 64 years old): 0.82
- % of recurrence of breast cancer ([2]; 65 years old and older): 32.77%
- recurrence ratio (prasterone / untreated VVA) ([2]; 65 years old and older): 0.91
- recurrence ratio (prasterone / untreated VVA) [2, 5]: 0.85
- % of recurrence of breast cancer ([2]; all ages (≥45 years old), any days of supply, history of breast cancer): 34.21%
- Recurrence analysis: % of incidence ([2]; at least 90 days of supply): 30.48%
- recurrence ratio (prasterone / untreated VVA) ([2]; at least 90 days of supply): 0.83
- Recurrence analysis: % of incidence ([2]; at least 180 days of supply): 30.29%
- recurrence ratio (prasterone / untreated VVA) ([2]; at least 180 days of supply): 0.78
- recurrence of breast cancer compared to the untreated VVA group (in words) ([2]; at least one prescription filled, all ages and three age groups): significantly lower; also recorded: significant reduction of recurrence
- recurrence of breast cancer compared to the untreated VVA groups (in words) [2, 6]: significant reduction

SMILES: C[C@]12CC[C@H]3[C@@H](CCC4=CC(=O)CC[C@@]43C)[C@@H]1CC[C@@H]2O [testosterone]
- breast cancer incidence (in words) [3]: reduction of the breast cancer incidence

SMILES: CC/C(=C(\c1ccccc1)c1ccc(OCCN(C)C)cc1)c1ccccc1 [Tamoxifen]
- recurrence of breast intraepithelial neoplasia (in words) [4]: halve the recurrence of breast intraepithelial neoplasia
